# According to BindingDB's records for doi:10.1021/acs.jmedchem.8b01821 (Rheinische Friedrich-Wilhelms-University of Bonn, 2019):
# Legend:
# [1] = Reversal of ABCG2-mediated multidrug resistance in human MCF-7/MX cells assessed as potentiation of SN-38-induced cytotoxicity incubated for 72 hrs by MTT assay
# [2] = Reversal of ABCC1-mediated multidrug resistance in human H69AR cells assessed as potentiation of daunorubicin-induced cytotoxicity incubated for 72 hrs by MTT assay
# [3] = Reversal of ABCB1-mediated multidrug resistance in human A2780/ADR cells assessed as potentiation of daunorubicin-induced cytotoxicity incubated for 72 hrs by MTT assay
# [4] = Reversal of ABCG2 (unknown origin)-mediated multidrug resistance in MDCK2 cells co-expressing BCRP (unknown origin) assessed as potentiation of SN-38-induced cytotoxicity incubated for 72 hrs by MTT assay
# [5] = Reversal of ABCB1 (unknown origin)-mediated multidrug resistance in MDCK2 cells co-expressing MDR1 (unknown origin) assessed as potentiation of daunorubicin-induced cytotoxicity incubated for 72 hrs by MTT assay
# [6] = Reversal of ABCC1 (unknown origin)-mediated multidrug resistance in MDCK2 cells co-expressing MRP1 (unknown origin) assessed as potentiation of daunorubicin-induced cytotoxicity incubated for 72 hrs by MTT assay
compound,measurement,setting,value
CC1CCc2c(sc3nc(-c4cccnc4)nc(N4CCN(C(C(N)=O)c5ccccc5)CC4)c23)C1 (stereo unspecified),EC50,[1],2730 nM
same,EC50,[2],2690 nM
same,EC50,[3],748 nM
same,EC50,[4],1310 nM
same,EC50,[5],361 nM
same,EC50,[6],728 nM
